These results are taken from publication PMC10667816, “A Cell‐Penetrant Peptide Disrupting the Transcription Factor CP2c Complexes Induces Cancer‐Specific Synthetic Lethality” (Advanced Science, 2023).

Series [1] deals with diethylnitrosamine (DEN)‐induced orthotopic liver cancer. The series is described as follows: DEN‐induced orthotopic liver cancer mouse model. In kind it is in vivo. The following applies: administered at five‐day intervals, C57BL/6 mice.
A short description of the next series: Solubility of peptides. In kind it is physicochemical. An excerpt:
The peptides listed in Table S3 (Supporting Information) were synthesized by either ANYGEN (Kwangju, Korea) or PepMic (Suzhou, China) and achieved purity of over 95%. These peptides were synthesized using the Solid‐phase method based on the Fmoc strategy, using an Applied Biosystems 431A peptide synthesizer on a 0.25‐mmol scale. To enhance the stability of ACP52C, saturated C16 palmitic acid, DHA, and E‐pal were utilized. These fatty acids were linked to the lysine (K) residue at the N‐terminal of ACP52C or within the ACP52 and iRGD region through a covalent bond formed between the εK NH3+ and αE or γE COO‐ groups. After synthesis, the final product was prepared through lyophilization and appeared as a white amorphous powder for both ACP52C and its derivatives. To confirm their quality, the purity and molecular weight of the final product were evaluated using amino acid analysis, analytical RP‐HPLC, and MALDI‐MS. […] FQI1, Sorafenib, and cisplatin were purchased from Sigma–Aldrich (SML0413, SML2653) or Selleckchem (S1166), respectively.
Figure S21. […]
A) A schematic representation depicting the structural diagrams, molecular weights, and minimum solubilities (in water or saline) of ACP52C and its derivatives. […] Tumor weight in the sacrificed mice after completion of drug administration schedule was expressed as means ± SE. […]

Another series has as its target CP2c complexes (Homo sapiens, UniProt Q12800). As to the kind of experiment: In vitro IP and pulldown assays of CP2c complexes. Format: biochemical. The following applies: regardless of the presence of probe DNA. The method, then:
Cells were lysed with lysis buffer (50 mM Tris‐HCl, pH 7.4, 150 mM NaCl, 1 mM EDTA, 0.1% triton X‐100, and 1 mM PMSF) with freshly added 1 mM DTT and a protease inhibitor cocktail. Input samples (10% of whole lysate) were saved from each lysate for WB analysis. For immunoprecipitation, precleared extracts were incubated overnight at 4 °C with 10 µL Protein A/G agarose beads, pre‐incubated with 2 µg of the primary antibodies (Table S4, Supporting Information). The immune complexes were washed 3 times with lysis buffer, and bound proteins were eluted with 2X bed volume of 0.2 M glycine buffer, followed by neutralization with an equal volume of 1 M Tris‐HCl, pH 8.0. For Flag tag immunoprecipitation, precleared extracts were incubated with 2 µL of Flag‐M2 beads (Sigma–Aldrich, A2220) by rotating overnight at 4 °C. The immune complexes were washed 3 times with lysis buffer, bound proteins were eluted with 100 µg mL^−1 Flag peptide (Sigma–Aldrich, F4799). Precipitated proteins were analyzed using western blot.
Biotinylated‐DNA fragments or ‐peptides and GST‐fused CP2c, whole‐ or nuclear‐ extracts of MDA‐MB‐231 cells were used for the analyze the interaction of peptide or DNA with CP2c. Nuclear extracts were extracted by the method described elsewhere.^[ [14] ^] […] The radioactivity of the eluted probe was measured by scintillation counting. […]

The structures appear in SMILES notation. *1 amine or outer side, *2 acyl side, *3 side chain or, on linkers, in order; H or OH if unused. Where a SMILES comes first, the peptide text is derived from it. Side-chain parts run from the residue outwards. The star is where a group is joined. γGlu = O=C(O)[C@H](CCC(=O)[*:2])N[*:1]; Palmitoyl = CCCCCCCCCCCCCCCC(=O)* A value given as a limit tells only on which side of the number the result lay.

CP2c complexes, sequence (Q12800 whole entry, one chain of several): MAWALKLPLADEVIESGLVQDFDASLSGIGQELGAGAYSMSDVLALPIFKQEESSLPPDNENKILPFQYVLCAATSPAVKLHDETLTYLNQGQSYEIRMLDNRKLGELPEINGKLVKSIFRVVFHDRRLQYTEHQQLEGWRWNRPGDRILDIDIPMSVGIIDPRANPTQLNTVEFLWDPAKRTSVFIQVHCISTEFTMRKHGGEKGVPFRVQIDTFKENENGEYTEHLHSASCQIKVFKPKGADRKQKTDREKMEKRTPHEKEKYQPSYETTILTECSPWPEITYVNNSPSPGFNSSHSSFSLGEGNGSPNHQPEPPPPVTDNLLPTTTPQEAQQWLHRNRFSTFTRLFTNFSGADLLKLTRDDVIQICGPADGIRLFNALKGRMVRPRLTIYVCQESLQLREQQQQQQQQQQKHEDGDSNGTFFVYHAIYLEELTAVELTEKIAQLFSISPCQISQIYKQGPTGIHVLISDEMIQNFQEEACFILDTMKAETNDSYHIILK

As to `CCCCCCCCCCCCCCCC(=O)N[C@@H](CCC(=O)NCCCC[C@H](NC(=O)CNC(=O)CNC(=O)[C@@H]1CCCN1C(=O)[C@H](CCCNC(=N)N)NC(=O)[C@H](CCC(N)=O)NC(=O)[C@@H]1CCCN1C(=O)[C@H](Cc1ccc(O)cc1)NC(=O)[C@H](CC(N)=O)NC(C)=O)C(=O)NCC(=O)NCC(=O)N[C@@H](CS)C(=O)N[C@@H](CCCNC(=N)N)C(=O)NCC(=O)N[C@@H](CC(=O)O)C(=O)N[C@@H](CCCCN)C(=O)NCC(=O)N1CCC[C@H]1C(=O)N[C@@H](CC(=O)O)C(=O)N[C@@H](CS)C(N)=O)C(=O)O` [ACP52CGK] (Ac-NYPQRPGGK([γGlu-Palmitoyl])GGCRGDKGPDC-NH2), in series [1], the “anti‐tumor efficacy” value is recorded as “remarkable anti‐tumor efficacy”. Besides, the “concentration at which completely dissolved” value in “Solubility of peptides” was no less than 100000 µg/mL.
For `CCOc1ccccc1C1CC(=O)Nc2cc3c(cc21)OCO3` (stereo not drawn) [FQI1, Factor Quinolinone Inhibitor 1, reference compound], at CP2c complexes, the “dissociation of CP2c complexes” value is reported as “only slight perturbation of CP2c complexes”.
